Tests used:
[1] = Selectivity ratio of IC50 for MMP2 to MMP13
[2] = target: 72 kDa type IV collagenase (Homo sapiens, UniProt P08253); experiment: Inhibition of MMP2
Collagenase 3 = Collagenase 3 (Homo sapiens, UniProt P45452)
Interstitial collagenase = target: T1, Interstitial collagenase (Homo sapiens, UniProt P03956); experiment: Inhibition of MMP1
T1 sequence (P03956 whole entry): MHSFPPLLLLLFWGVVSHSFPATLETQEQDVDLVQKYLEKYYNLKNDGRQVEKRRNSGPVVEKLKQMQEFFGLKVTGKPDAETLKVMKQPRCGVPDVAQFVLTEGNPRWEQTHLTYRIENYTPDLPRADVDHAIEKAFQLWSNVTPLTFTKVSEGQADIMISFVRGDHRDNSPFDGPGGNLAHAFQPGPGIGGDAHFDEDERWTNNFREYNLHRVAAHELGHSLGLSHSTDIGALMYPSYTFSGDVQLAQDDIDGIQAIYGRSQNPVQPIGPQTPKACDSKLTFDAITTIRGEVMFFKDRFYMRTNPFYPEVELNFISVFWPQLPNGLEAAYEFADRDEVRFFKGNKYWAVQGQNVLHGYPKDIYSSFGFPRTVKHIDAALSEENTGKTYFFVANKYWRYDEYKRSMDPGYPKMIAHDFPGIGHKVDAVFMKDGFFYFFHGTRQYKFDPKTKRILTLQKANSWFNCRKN

[3] = target: Matrix metalloproteinase-14 (Homo sapiens, UniProt P50281); experiment: Inhibition of MMP14
Neutrophil collagenase = Neutrophil collagenase (Homo sapiens, UniProt P22894); experiment: Inhibition of MMP8
[4] = target: Matrix metalloproteinase-9 (Homo sapiens, UniProt P14780); experiment: Inhibition of MMP9
Stromelysin-1 = Stromelysin-1 (Homo sapiens, UniProt P08254); experiment: Inhibition of MMP3
[5] = Half life in po dosed rat; type: ADME, organism-based; details: in vivo
[6] = Bioavailability in po dosed rat; type: ADME, organism-based; details: in vivo

Chain of Stromelysin-1 (P08254 whole entry): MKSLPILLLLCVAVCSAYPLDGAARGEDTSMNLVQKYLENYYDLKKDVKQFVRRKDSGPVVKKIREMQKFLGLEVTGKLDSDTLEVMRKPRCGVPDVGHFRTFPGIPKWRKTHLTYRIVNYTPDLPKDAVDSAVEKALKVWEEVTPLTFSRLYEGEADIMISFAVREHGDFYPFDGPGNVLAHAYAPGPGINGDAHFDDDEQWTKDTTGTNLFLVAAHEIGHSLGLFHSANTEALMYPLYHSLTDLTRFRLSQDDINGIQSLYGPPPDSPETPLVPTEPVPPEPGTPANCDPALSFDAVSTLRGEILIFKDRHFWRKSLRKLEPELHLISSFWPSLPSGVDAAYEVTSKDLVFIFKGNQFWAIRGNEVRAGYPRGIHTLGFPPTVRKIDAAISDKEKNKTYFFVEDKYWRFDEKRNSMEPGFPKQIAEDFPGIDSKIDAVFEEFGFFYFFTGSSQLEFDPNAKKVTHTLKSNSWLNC
Chain of Matrix metalloproteinase-9 (P14780 whole entry): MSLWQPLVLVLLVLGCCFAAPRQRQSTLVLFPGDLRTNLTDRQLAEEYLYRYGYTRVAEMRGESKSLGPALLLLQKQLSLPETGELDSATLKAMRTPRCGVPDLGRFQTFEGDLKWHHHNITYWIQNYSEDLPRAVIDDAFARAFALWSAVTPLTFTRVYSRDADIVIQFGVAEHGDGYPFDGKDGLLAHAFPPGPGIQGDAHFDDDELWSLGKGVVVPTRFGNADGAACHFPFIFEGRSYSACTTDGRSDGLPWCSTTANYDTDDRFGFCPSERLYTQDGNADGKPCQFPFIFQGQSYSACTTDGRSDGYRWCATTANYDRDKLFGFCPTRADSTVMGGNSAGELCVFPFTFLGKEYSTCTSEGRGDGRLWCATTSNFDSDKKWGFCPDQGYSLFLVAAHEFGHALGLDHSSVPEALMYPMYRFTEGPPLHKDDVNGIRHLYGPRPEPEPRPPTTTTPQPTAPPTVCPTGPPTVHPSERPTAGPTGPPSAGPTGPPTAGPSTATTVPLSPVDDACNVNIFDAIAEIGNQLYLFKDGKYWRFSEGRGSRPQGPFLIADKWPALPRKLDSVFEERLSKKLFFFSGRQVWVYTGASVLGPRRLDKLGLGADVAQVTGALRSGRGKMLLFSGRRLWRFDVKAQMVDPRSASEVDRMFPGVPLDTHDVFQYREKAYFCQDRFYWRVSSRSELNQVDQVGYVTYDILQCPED
Chain of Neutrophil collagenase (P22894 whole entry): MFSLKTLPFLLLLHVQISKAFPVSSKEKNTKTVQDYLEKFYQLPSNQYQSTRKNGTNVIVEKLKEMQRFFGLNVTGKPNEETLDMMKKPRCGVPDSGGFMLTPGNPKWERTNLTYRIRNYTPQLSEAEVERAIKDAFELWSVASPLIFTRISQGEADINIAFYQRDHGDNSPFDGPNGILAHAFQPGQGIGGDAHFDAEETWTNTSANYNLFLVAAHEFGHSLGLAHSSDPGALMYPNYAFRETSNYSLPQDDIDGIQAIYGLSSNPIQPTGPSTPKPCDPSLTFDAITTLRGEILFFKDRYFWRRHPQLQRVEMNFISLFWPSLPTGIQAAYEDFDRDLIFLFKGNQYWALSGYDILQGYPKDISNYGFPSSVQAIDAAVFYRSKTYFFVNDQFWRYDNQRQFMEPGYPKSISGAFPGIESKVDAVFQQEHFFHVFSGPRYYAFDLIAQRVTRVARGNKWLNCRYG
Chain of 72 kDa type IV collagenase (P08253 whole entry): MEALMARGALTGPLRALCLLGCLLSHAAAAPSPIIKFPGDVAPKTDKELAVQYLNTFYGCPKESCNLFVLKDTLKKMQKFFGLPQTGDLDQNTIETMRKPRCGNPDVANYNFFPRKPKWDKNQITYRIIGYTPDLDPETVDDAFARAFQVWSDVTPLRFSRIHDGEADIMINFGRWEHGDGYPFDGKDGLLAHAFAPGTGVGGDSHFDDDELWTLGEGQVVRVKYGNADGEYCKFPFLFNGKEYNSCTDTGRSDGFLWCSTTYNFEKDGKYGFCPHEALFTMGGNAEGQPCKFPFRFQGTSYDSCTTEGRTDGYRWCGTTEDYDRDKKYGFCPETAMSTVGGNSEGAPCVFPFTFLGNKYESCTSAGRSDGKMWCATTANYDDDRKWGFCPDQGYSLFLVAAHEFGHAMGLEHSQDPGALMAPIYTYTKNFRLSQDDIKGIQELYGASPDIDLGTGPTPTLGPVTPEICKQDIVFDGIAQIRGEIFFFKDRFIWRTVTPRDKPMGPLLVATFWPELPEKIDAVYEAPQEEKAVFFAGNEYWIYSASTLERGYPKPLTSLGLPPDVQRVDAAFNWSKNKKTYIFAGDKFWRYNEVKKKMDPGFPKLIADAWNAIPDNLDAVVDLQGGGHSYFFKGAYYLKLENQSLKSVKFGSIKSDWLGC

Compound	Ratio IC50 [1]	IC50 [2]	IC50 (Collagenase 3)	also measured
COc1cc2c(cc1OC)CN(C(=O)C1CCN(c3ccc(S(=O)(=O)C4(C(=O)NO)CCOCC4)cc3)CC1)CC2	–	2.4 µM	–	–
CN(Cc1ccccc1)C(=O)C1CCN(c2ccc(S(=O)(=O)C3(C(=O)NO)CCN(C4CC4)CC3)cc2)CC1	175	3.5 µM	0.02 µM	–
C[C@@H]1COC[C@H](C)N1C(=O)C1CCN(c2ccc(S(=O)(=O)C3(C(=O)NO)CCOCC3)cc2)CC1	–	> 10 µM	0.0181 µM	–
O=C(C1CCN(c2ccc(S(=O)(=O)C3(C(=O)NO)CCOCC3)cc2)CC1)N1CCN(CCc2ccccc2)CC1	36	0.9 µM	0.0251 µM	–
CC(=O)N1CCN(C(=O)C2CCN(c3ccc(S(=O)(=O)C4(C(=O)NO)CCOCC4)cc3)CC2)CC1	50	–	–	–
CC1CN(C(=O)C2CCN(c3ccc(S(=O)(=O)C4(C(=O)NO)CCOCC4)cc3)CC2)CC(C)N1 (centres undefined)	–	7.3 µM	–	–
O=C(C1CCN(c2ccc(S(=O)(=O)C3(C(=O)NO)CCOCC3)cc2)CC1)N1CCN(c2cnccn2)CC1	34	–	–	–
C=CCN(C)C(=O)C1CCN(c2ccc(S(=O)(=O)C3(C(=O)NO)CCOCC3)cc2)CC1	83	2.9 µM	0.035 µM	–
COCCN1CCC(C(=O)NO)(S(=O)(=O)c2ccc(N3CCC(C(=O)N4CC(C)NC(C)C4)CC3)cc2)CC1 (centres undefined)	34	1.7 µM	0.05 µM	–
O=C(C1CCN(c2ccc(S(=O)(=O)C3(C(=O)NO)CCOCC3)cc2)CC1)N1CCN(c2ccc(F)cc2)CC1	267	–	–	–
COCCN1CCC(C(=O)NO)(S(=O)(=O)c2ccc(N3CCC(C(=O)Nc4ccccc4)CC3)cc2)CC1	–	–	–	IC50 [3]: 10 µM; half-life [5]: 49.8 min; IC50 (Neutrophil collagenase): 10 µM; bioavailability [6]: 4.2%; IC50 (Interstitial collagenase): 10 µM; IC50 [4]: 1.23 µM; IC50 (Stromelysin-1): 0.37 µM
O=C(C1CCN(c2ccc(S(=O)(=O)C3(C(=O)NO)CCOCC3)cc2)CC1)N1CCN(c2ccccc2F)CC1	209	–	–	–
O=C(C1CCN(c2ccc(S(=O)(=O)C3(C(=O)NO)CCOCC3)cc2)CC1)N1CCc2ccccc2C1	233	2.1 µM	0.009 µM	–
C#CCN(C)C(=O)C1CCN(c2ccc(S(=O)(=O)C3(C(=O)NO)CCOCC3)cc2)CC1	86	2.1 µM	0.0245 µM	–

Further lines, with some results ahead:

Ratio IC50 [1]	IC50 [2]	IC50 (Collagenase 3)	Compound	also measured
250	–	–	O=C(C1CCN(c2ccc(S(=O)(=O)C3(C(=O)NO)CCOCC3)cc2)CC1)N1CCN(c2ncccn2)CC1	–
250	–	–	COc1ccccc1N1CCN(C(=O)C2CCN(c3ccc(S(=O)(=O)C4(C(=O)NO)CCOCC4)cc3)CC2)CC1	–
–	0.4 µM	0.07 µM	COCCN1CCC(C(=O)NO)(S(=O)(=O)c2ccc(N3CCC(C(=O)N4CCN(c5cccc(C)c5C)CC4)CC3)cc2)CC1	IC50 (Interstitial collagenase): > 10 µM
156	7 µM	0.045 µM	COCCN1CCN(C(=O)C2CCN(c3ccc(S(=O)(=O)C4(C(=O)NO)CCOCC4)cc3)CC2)CC1	–
336	–	–	O=C(C1CCN(c2ccc(S(=O)(=O)C3(C(=O)NO)CCOCC3)cc2)CC1)N1CCN(c2ccccn2)CC1	–
–	6.35 µM	0.0277 µM	Cc1cccc(N2CCN(C(=O)C3CCN(c4ccc(S(=O)(=O)C5(C(=O)NO)CCN(C6CC6)CC5)cc4)CC3)CC2)c1C	IC50 [3]: > 10 µM; IC50 (Neutrophil collagenase): 9.4 µM; IC50 (Interstitial collagenase): > 10 µM; IC50 [4]: > 10 µM; IC50 (Stromelysin-1): 0.55 µM
> 111	> 10 µM	–	CN(C)CCN1CCN(C(=O)C2CCN(c3ccc(S(=O)(=O)C4(C(=O)NO)CCOCC4)cc3)CC2)CC1	–
104	–	–	CC(=O)c1ccc(N2CCN(C(=O)C3CCN(c4ccc(S(=O)(=O)C5(C(=O)NO)CCOCC5)cc4)CC3)CC2)cc1	–
459	–	–	Cc1ccc(N2CCN(C(=O)C3CCN(c4ccc(S(=O)(=O)C5(C(=O)NO)CCOCC5)cc4)CC3)CC2)c(C)c1	–
196	–	–	CC(C)N1CCN(C(=O)C2CCN(c3ccc(S(=O)(=O)C4(C(=O)NO)CCOCC4)cc3)CC2)CC1	–
150	–	–	O=C(C1CCN(c2ccc(S(=O)(=O)C3(C(=O)NO)CCOCC3)cc2)CC1)N1CCN(CCO)CC1	–
58	–	–	O=C(C1CCN(c2ccc(S(=O)(=O)C3(C(=O)NO)CCOCC3)cc2)CC1)N1CCN(c2ccncc2)CC1	–
1500	6 µM	0.004 µM	Cc1cccc(N2CCN(C(=O)C3CCN(c4ccc(S(=O)(=O)C5(C(=O)NO)CCOCC5)cc4)CC3)CC2)c1C	IC50 [3]: > 10 µM; IC50 (Neutrophil collagenase): > 10 µM; IC50 (Interstitial collagenase): > 10 µM; IC50 [4]: > 10 µM; IC50 (Stromelysin-1): 0.16 µM
